Measured values taken from patent US20130109682A1, “CYCLIC ETHER COMPOUNDS USEFUL AS KINASE INHIBITORS” (NOVARTIS AG, priority 2010, published 2013).
Where two headings read alike, the source gives them in different places.

Experiments:
[1] = target: T1, PIM2 (Homo sapiens, UniProt Q9P1W9); assay: Pim 2 AlphaScreen assay (high ATP); assay type: biochemical; conditions: read-out: Pim2 IC50
Protocol: Pim1, Pim2, Pim3 AlphaScreen Assay Pim 1, Pim 2 & Pim 3 AlphaScreen assays using high ATP (11-125×ATP Km) were used to determine the biochemical activity of the inhibitors. The activity of Pim 1, Pim 2, & Pim 3 is measured using a homogeneous bead based system quantifying the amount of phosphorylated peptide substrate resulting from kinase-catalyzed phosphoryl transfer to a peptide substrate. Compounds to be tested are dissolved in 100% DMSO and directly distributed to a white 384-well plate at […] per well. To start the reaction, 5 μl of 100 nM Bad peptide (Biotin-AGAGRSRHSSYPAGT —OH) and ATP (concentrations described below) in assay buffer (50 mM Hepes, pH=7.5, 5 mM MgCl2, 0.05% BSA, 0.01% Tween-20, 1 mM DTT) is added to each well. This is followed by the addition of 5 μl/well of Pim 1, Pim 2 or Pim 3 kinase in assay buffer (concentrations described below). Final assay concentrations (described below) are in 2.5% DMSO. The reactions are performed for ˜2 hours, then stopped by the addition of 10 μl of 0.75 μg/ml anti-phospho Ser/Thr antibody (Cell Signaling), 10 μg/ml Protein A AlphaScreen beads (Perkin Elmer), and 10 μg/ml streptavidin coated AlphaScreen beads in stop/detection buffer (50 mM EDTA, 95 mM Tris, pH=7.5, 0.01% Tween-20). The stopped reactions are incubated overnight in the dark. The phosphorylated peptide is detected via an […] initiated chemiluminescence/fluorescence cascade using the Envision plate reader (Perkin Elmer).
IC50, the half maximal inhibitory concentration, represents the concentration of a test compound that is required for 50% inhibition of its target in vitro under the described assay conditions.

[2] = target: GSK3β (Homo sapiens, UniProt P49841); assay: GSK3β ATP depletion assay; assay type: biochemical; conditions: read-out: GSK3b IC50
Chain of GSK3β (P49841 whole entry, species assumed): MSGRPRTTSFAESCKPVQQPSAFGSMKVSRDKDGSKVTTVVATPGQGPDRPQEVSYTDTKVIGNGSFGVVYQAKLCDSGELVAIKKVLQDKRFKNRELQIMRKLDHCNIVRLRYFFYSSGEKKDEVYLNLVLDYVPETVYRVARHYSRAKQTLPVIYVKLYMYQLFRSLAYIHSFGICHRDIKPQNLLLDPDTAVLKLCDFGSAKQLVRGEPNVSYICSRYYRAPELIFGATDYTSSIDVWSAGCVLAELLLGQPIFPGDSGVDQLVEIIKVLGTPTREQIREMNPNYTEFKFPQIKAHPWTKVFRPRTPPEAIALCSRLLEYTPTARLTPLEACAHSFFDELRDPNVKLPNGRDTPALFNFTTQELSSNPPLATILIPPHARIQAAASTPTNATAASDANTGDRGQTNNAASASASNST
Procedure, shortened: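 Human GSK3β (5 nM) preincubated 15 min with 10 μM biotinylated phospho-CREB peptide in pH 7.5 Tris buffer (15 mM MgCl2, 1 mM DTT, 0.1% BSA, 2.5% DMSO). Reaction started with 2 μM ATP and run to about 50% ATP depletion. Remaining ATP measured by KinaseGlo luminescence.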

[3] = system: KMS11 (human myeloma cell line); assay: Cell proliferation assay (CellTiter-Glo), KMS11; assay type: cell-based; conditions: Homo sapiens, KMS-11; KMS11-Luc cells
Procedure, shortened: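 KMS11 cells in IMDM with 10% FBS and sodium pyruvate, seeded at 2000 cells/well on assay day. Compound added at 2× to equal volume of cells, incubated 3 days at 37° C. Viability read by CellTiter-Glo luminescence; EC50 derived.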

[4] = target: PIM1 (Homo sapiens, UniProt P11309); assay: KinaseGlo Pim1 ATP depletion assay; assay type: biochemical
Chain of PIM1 (P11309 whole entry): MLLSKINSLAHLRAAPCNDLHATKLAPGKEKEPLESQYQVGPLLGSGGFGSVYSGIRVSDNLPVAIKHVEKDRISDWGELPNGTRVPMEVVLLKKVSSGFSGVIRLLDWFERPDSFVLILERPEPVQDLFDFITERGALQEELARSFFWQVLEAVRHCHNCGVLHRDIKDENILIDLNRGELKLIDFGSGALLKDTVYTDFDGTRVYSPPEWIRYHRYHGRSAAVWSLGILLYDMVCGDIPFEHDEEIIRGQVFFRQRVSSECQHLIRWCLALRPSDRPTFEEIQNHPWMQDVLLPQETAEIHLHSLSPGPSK
Procedure, shortened: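 2.5 nM PIM1 preincubated 15 min with compound and 40 μM BAD peptide in 50 mM HEPES pH 7.5, 5 mM MgCl2, 1 mM DTT, 0.05% BSA, 2.5% DMSO. The reaction was started with 20 μM ATP (final) and run to about 50% ATP depletion. Remaining ATP read by KinaseGlo Plus luminescence to give IC50.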

[5] = target: PIM3 (Homo sapiens, UniProt Q86V86); assay: KinaseGlo Pim3 ATP depletion assay; assay type: biochemical
Procedure, shortened: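 Kinase was preincubated 15 min with BAD peptide in HEPES pH 7.5/MgCl2/DTT/BSA before ATP was added. Final concentrations were 40 μM ATP, 100 μM BAD peptide and 2.5% DMSO, with 5 nM enzyme. The reaction ran to ~50% ATP depletion and remaining ATP was read by KinaseGlo Plus luminescence.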

[6] = target: T1, PIM2; assay: KinaseGlo Pim2 ATP depletion assay; assay type: biochemical
Procedure, shortened: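 Luminescent ATP-depletion read-out of PIM2 phosphorylating BAD peptide (RSRHSSYPAGT-OH). Final conditions: 5 nM PIM2, 4 μM ATP, 10 μM peptide, 2.5% DMSO in 50 mM HEPES pH 7.5, 5 mM MgCl2, 1 mM DTT, 0.05% BSA. Enzyme–peptide preincubated 15 min with compound; reaction run to ~50% ATP depletion.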

T1 sequence (Q9P1W9 whole entry): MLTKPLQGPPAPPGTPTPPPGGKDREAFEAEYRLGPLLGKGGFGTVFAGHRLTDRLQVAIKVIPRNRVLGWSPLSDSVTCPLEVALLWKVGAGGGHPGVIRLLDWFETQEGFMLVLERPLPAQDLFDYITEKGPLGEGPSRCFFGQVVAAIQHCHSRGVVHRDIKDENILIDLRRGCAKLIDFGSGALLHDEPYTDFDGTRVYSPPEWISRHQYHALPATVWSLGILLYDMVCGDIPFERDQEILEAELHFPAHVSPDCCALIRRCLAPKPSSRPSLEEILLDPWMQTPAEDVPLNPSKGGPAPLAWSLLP

SMILES	IC50 [1] [µM]	IC50 ([2]; ATP depletion assay) [µM]	other results
CC[C@H]1OC(c2ccncc2NC(=O)c2ccc(F)c(-c3c(F)cc(S(C)(=O)=O)cc3F)n2)C[C@@H](N)[C@]1(C)O (stereo in doubt) [Example 283, N-(4-((2S,4R,5S,6R)-4-amino-6-ethyl-5-hydroxy-5-methyltetrahydro-2H-pyran-2-yl)pyridin-3-yl)-6-(2,6-difluoro-4-(methylsulfonyl)phenyl)-5-fluoropicolinamide]	0.0874	12.5	–
Nc1cnc(-c2c(F)cccc2F)nc1C(=O)Nc1cnccc1[C@@H]1C[C@H](N)[C@]2(O)CCC[C@@H]2O1 [Example 214, 5-amino-N-(4-((2S,4S,4aR,7aS)-4-amino-4a-hydroxyoctahydrocyclopenta[b]pyran-2-yl)pyridin-3-yl)-2-(2,6-difluorophenyl)pyrimidine-4-carboxamide]	–	–	EC50 [3]: > 10 µM; IC50 [4]: 0.258 µM; IC50 [2]: > 25 µM; IC50 [5]: 0.373 µM; IC50 [6]: 2.25 µM
Nc1ccc(-c2c(F)cccc2F)nc1C(=O)Nc1cnccc1[C@H]1C[C@@H](N)[C@@]2(O)CCC[C@H]2O1 [Example 215, 3-amino-N-(4-((2R,4R,4aS,7aR)-4-amino-4a-hydroxyoctahydrocyclopenta[b]pyran-2-yl)pyridin-3-yl)-6-(2,6-difluorophenyl)picolinamide]	–	–	EC50 [3]: 0.8 µM; IC50 [4]: 0.0006 µM; IC50 [2]: 0.252 µM; IC50 [5]: 0.004 µM; IC50 [6]: 0.0026 µM
CC(C)(C)[C@H]1O[C@@H](c2ccncc2NC(=O)c2ccc(F)c(-c3c(F)cccc3F)n2)C[C@H](N)[C@@H]1O [Example 278, N-(4-((2R,4S,5S,6R)-4-amino-6-(tert-butyl)-5-hydroxytetrahydro-2H-pyran-2-yl)pyridin-3-yl)-6-(2,6-difluorophenyl)-5-fluoropicolinamide]	0.0707	9.7	–
C[C@]1(O)[C@@H](N)C[C@H](c2ccncc2NC(=O)c2ccc(F)c(-c3c(F)cccc3F)n2)OC12CC2 [Example 287, N-(4-((5R,7S,8S)-7-amino-8-hydroxy-8-methyl-4-oxaspiro[2.5]octan-5-yl)pyridin-3-yl)-6-(2,6-difluorophenyl)-5-fluoropicolinamide]	0.388	1.5	–
CC(C)[C@H]1O[C@@H](c2ccncc2NC(=O)c2ccnc(-c3c(F)cccc3F)n2)C[C@@H](N)[C@@H]1O [Example 293, N-(4-((2R,4R,5S,6R)-4-amino-5-hydroxy-6-isopropyltetrahydro-2H-pyran-2-yl)pyridin-3-yl)-2-(2,6-difluorophenyl)pyrimidine-4-carboxamide]	0.153	0.95	–
CC(C)[C@H]1O[C@@H](c2ccncc2NC(=O)c2ccc(F)c(-c3cnc4[nH]ccc4c3)n2)C[C@@H](N)[C@@H]1O [Example 295, N-(4-((2R,4R,5S,6R)-4-amino-5-hydroxy-6-isopropyltetrahydro-2H-pyran-2-yl)pyridin-3-yl)-5-fluoro-6-(1H-pyrrolo[2,3-b]pyridin-5-yl)picolinamide]	0.345	4.3	–
CC1(C)C[C@@H](N)C[C@H](c2ccncc2NC(=O)c2ccc(F)c(-c3c(F)cccc3F)n2)O1 [Example 298, N-(4-((2R,4S)-4-amino-6,6-dimethyltetrahydro-2H-pyran-2-yl)pyridin-3-yl)-6-(2,6-difluorophenyl)-5-fluoropicolinamide]	0.234	4.94	–
CC(C)[C@H]1C[C@@H](N)C[C@@H](c2ccncc2NC(=O)c2ccc(F)c(-c3c(F)cccc3F)n2)O1 [Example 301, N-(4-((2S,4R,6R)-4-amino-6-isopropyltetrahydro-2H-pyran-2-yl)pyridin-3-yl)-6-(2,6-difluorophenyl)-5-fluoropicolinamide]	0.159	20.7	–
CC(C)[C@H]1C[C@@H](N)C[C@@H](c2ccncc2NC(=O)c2ccc(F)c(-c3c(F)cc(S(C)(=O)=O)cc3F)n2)O1 [Example 303, N-(4-((2S,4R,6R)-4-amino-6-isopropyltetrahydro-2H-pyran-2-yl)pyridin-3-yl)-6-(2,6-difluoro-4-(methylsulfonyl)phenyl)-5-fluoropicolinamide]	1.25	10.3	–
CC(C)[C@H]1O[C@@H](c2ccncc2NC(=O)c2ccnc(-n3ccc(=O)cc3)n2)C[C@@H](N)[C@@H]1O [Example 304, N-(4-((2R,4R,5S,6R)-4-amino-5-hydroxy-6-isopropyltetrahydro-2H-pyran-2-yl)pyridin-3-yl)-2-(4-oxopyridin-1(4H)-yl)pyrimidine-4-carboxamide]	> 25	> 25	–
CC(C)C(=O)Nc1ccc(F)c(-c2nc(C(=O)Nc3cnccc3[C@H]3C[C@@H](N)[C@H](O)[C@@H](C(C)C)O3)ccc2F)c1F [Example 308, N-(4-((2R,4R,5S,6R)-4-amino-5-hydroxy-6-isopropyltetrahydro-2H-pyran-2-yl)pyridin-3-yl)-6-(2,6-difluoro-3-isobutyramidophenyl)-5-fluoropicolinamide]	0.0685	18.3	–

More lines, in order of falling IC50 [1], values ahead:

IC50 [1] [µM]	IC50 ([2]; ATP depletion assay) [µM]	SMILES	other results
7.49	–	CC[C@@H]1O[C@H](c2ccncc2NC(=O)c2ccc(F)c(-c3c(F)cccc3F)n2)C[C@H](O)[C@@]1(C)O [Example 163, 6-(2,6-difluorophenyl)-N-(4-((2S,4S,5R,6S)-6-ethyl-4,5-dihydroxy-5-methyltetrahydro-2H-pyran-2-yl)pyridin-3-yl)-5-fluoropicolinamide]	–
1.66	2.82	CC(C)[C@H]1O[C@@H](c2ccncc2NC(=O)c2ccc(F)c(-c3ccc(S(C)(=O)=O)cc3)n2)C[C@@H](N)[C@@H]1O [Example 306, N-(4-((2R,4R,5S,6R)-4-amino-5-hydroxy-6-isopropyltetrahydro-2H-pyran-2-yl)pyridin-3-yl)-5-fluoro-6-(4-(methylsulfonyl)phenyl)picolinamide]	–
0.272	16.3	C[C@@]1(O)[C@H](N)C[C@@H](c2ccncc2NC(=O)c2ccc(F)c(-c3c(F)cccc3F)n2)OC12CC2 [Example 288, N-(4-((5S,7R,8R)-7-amino-8-hydroxy-8-methyl-4-oxaspiro[2.5]octan-5-yl)pyridin-3-yl)-6-(2,6-difluorophenyl)-5-fluoropicolinamide]	–
0.0591	0.619	CC[C@]1(O)[C@H](N)CC(c2ccncc2NC(=O)c2ccc(F)c(-c3c(F)cc(S(C)(=O)=O)cc3F)n2)O[C@@H]1C (stereo in doubt) [Example 284, N-(4-((2S,4R,5S,6R)-4-amino-5-ethyl-5-hydroxy-6-methyltetrahydro-2H-pyran-2-yl)pyridin-3-yl)-6-(2,6-difluoro-4-(methylsulfonyl)phenyl)-5-fluoropicolinamide]	–
0.0501	3.42	CC(=O)Nc1ccc(F)c(-c2nc(C(=O)Nc3cnccc3C3C[C@@H](N)[C@H](O)[C@@H](C(C)C)O3)ccc2F)c1F (stereo in doubt) [Example 307, 6-(3-acetamido-2,6-difluorophenyl)-N-(4-((2S,4R,5S,6R)-4-amino-5-hydroxy-6-isopropyltetrahydro-2H-pyran-2-yl)pyridin-3-yl)-5-fluoropicolinamide]	–
0.0271	0.548	CC(C)(C)[C@@H]1O[C@H](c2ccncc2NC(=O)c2ccc(F)c(-c3c(F)cccc3F)n2)C[C@@H](N)[C@H]1O [Example 279, N-(4-((2S,4R,5R,6S)-4-amino-6-(tert-butyl)-5-hydroxytetrahydro-2H-pyran-2-yl)pyridin-3-yl)-6-(2,6-difluorophenyl)-5-fluoropicolinamide]	–
